In PubChem BioAssay AID1259407 (Chemical Carcinogenesis Research Information System (CCRIS), 2018):
The source made the active and inactive calls. The rule behind the calls is not given here.

System: CCRIS mutagenicity, Ames/micronucleus/aberration tests
Test: CCRIS mutagenicity studies
[1] = Test System: AMES SALMONELLA TYPHIMURIUM, Strain/Indicator: TA100, Metabolic Activation: NONE, Method: PREINCUBATION
[2] = Test System: AMES SALMONELLA TYPHIMURIUM, Strain/Indicator: TA1535, Metabolic Activation: NONE, Method: PREINCUBATION
[3] = Test System: AMES SALMONELLA TYPHIMURIUM, Strain/Indicator: TA1537, Metabolic Activation: NONE, Method: PREINCUBATION

## O=C(O)CBr
End Point: IN VITRO CHROMOSOMAL ABERRATIONS, Test System: CHL CELLS, Metabolic Activation: NONE
  mutagenic call: active; positive (structural changes)
End Point: IN VITRO CHROMOSOMAL ABERRATIONS, Test System: CHL CELLS, Metabolic Activation: RAT, LIVER, S-9, SODIUM PHENOBARBITAL AND 5,6-BENZOFLAVONE
  mutagenic call: active; positive (structural changes)
Test System: AMES SALMONELLA TYPHIMURIUM, Strain/Indicator: RSJ100, Metabolic Activation: NONE, Method: PREINCUBATION
  mutagenic call: inactive; negative
Test System: AMES SALMONELLA TYPHIMURIUM, Strain/Indicator: RSJ100, Metabolic Activation: RAT LIVER S-9, AROCLOR 1254, Method: PREINCUBATION
  mutagenic call: inactive; negative
Test System: AMES SALMONELLA TYPHIMURIUM, Strain/Indicator: TA98, Metabolic Activation: RAT LIVER S-9, AROCLOR 1254, Method: PREINCUBATION
  mutagenic call: active; positive
Test System: AMES SALMONELLA TYPHIMURIUM, Strain/Indicator: TA98, Metabolic Activation: RAT LIVER S-9, PHENOBARBITAL AND BETA-NAPHTHOFLAVONE, Method: PREINCUBATION
  mutagenic call: inactive; negative
Test System: AMES SALMONELLA TYPHIMURIUM, Strain/Indicator: TA100, Metabolic Activation: NONE, Method: FLUCTUATION TEST
  mutagenic call: inactive; negative
[1]
  mutagenic call: active; positive
Test System: AMES SALMONELLA TYPHIMURIUM, Strain/Indicator: TA100, Metabolic Activation: RAT LIVER S-9, AROCLOR 1254, Method: PREINCUBATION
  mutagenic call: active; positive
Test System: AMES SALMONELLA TYPHIMURIUM, Strain/Indicator: TA100, Metabolic Activation: RAT LIVER S-9, PHENOBARBITAL AND BETA-NAPHTHOFLAVONE, Method: PREINCUBATION
  mutagenic call: inactive; negative
Test System: AMES SALMONELLA TYPHIMURIUM, Strain/Indicator: TA100, Metabolic Activation: RAT, LIVER, S-9, AROCLOR 1254, Method: FLUCTUATION TEST
  mutagenic call: active; positive
[2]
  mutagenic call: inactive; negative
Test System: AMES SALMONELLA TYPHIMURIUM, Strain/Indicator: TA1535, Metabolic Activation: RAT LIVER S-9, PHENOBARBITAL AND BETA-NAPHTHOFLAVONE, Method: PREINCUBATION
  mutagenic call: inactive; negative
[3]
  mutagenic call: inactive; negative
Test System: AMES SALMONELLA TYPHIMURIUM, Strain/Indicator: TA1537, Metabolic Activation: RAT LIVER S-9, PHENOBARBITAL AND BETA-NAPHTHOFLAVONE, Method: PREINCUBATION
  mutagenic call: inactive; negative
Test System: E.COLI, Strain/Indicator: WP2UVRA, Metabolic Activation: NONE, Method: PREINCUBATION
  mutagenic call: inactive; negative
Test System: E.COLI, Strain/Indicator: WP2UVRA, Metabolic Activation: RAT LIVER S-9, PHENOBARBITAL AND BETA-NAPHTHOFLAVONE, Method: PREINCUBATION
  mutagenic call: inactive; negative

## Nc1cccc2nc3ccccc3c(N)c12
[2]
  mutagenic call: inactive; negative
Test System: AMES SALMONELLA TYPHIMURIUM, Strain/Indicator: TA1535, Metabolic Activation: RAT, LIVER, S-9, TETRACHLOROBIPHENYL, Method: PREINCUBATION
  mutagenic call: active; positive
[3]
  mutagenic call: active; positive
Test System: AMES SALMONELLA TYPHIMURIUM, Strain/Indicator: TA1537, Metabolic Activation: RAT, LIVER, S-9, TETRACHLOROBIPHENYL, Method: PREINCUBATION
  mutagenic call: active; positive
Test System: AMES SALMONELLA TYPHIMURIUM, Strain/Indicator: TA1538, Metabolic Activation: NONE, Method: PREINCUBATION
  mutagenic call: inactive; negative
Test System: AMES SALMONELLA TYPHIMURIUM, Strain/Indicator: TA1538, Metabolic Activation: RAT, LIVER, S-9, TETRACHLOROBIPHENYL, Method: PREINCUBATION
  mutagenic call: active; positive
Test System: AMES SALMONELLA TYPHIMURIUM, Strain/Indicator: TA1975, Metabolic Activation: RAT, LIVER, S-9, TETRACHLOROBIPHENYL, Method: PREINCUBATION
  mutagenic call: active; positive
Test System: AMES SALMONELLA TYPHIMURIUM, Strain/Indicator: TA1977, Metabolic Activation: NONE, Method: PREINCUBATION
  mutagenic call: active; positive
Test System: AMES SALMONELLA TYPHIMURIUM, Strain/Indicator: TA1977, Metabolic Activation: RAT, LIVER, S-9, TETRACHLOROBIPHENYL, Method: PREINCUBATION
  mutagenic call: active; positive
Test System: AMES SALMONELLA TYPHIMURIUM, Strain/Indicator: TA1978, Metabolic Activation: RAT, LIVER, S-9, TETRACHLOROBIPHENYL, Method: PREINCUBATION
  mutagenic call: active; positive

## CC(C)CC(=O)Nc1snc2ccc(Cl)cc12
Test System: AMES SALMONELLA TYPHIMURIUM, Strain/Indicator: TA100, Metabolic Activation: NONE, Method: STANDARD PLATE
  mutagenic call: inactive; negative
Test System: AMES SALMONELLA TYPHIMURIUM, Strain/Indicator: TA100, Metabolic Activation: S-9, Method: STANDARD PLATE
  mutagenic call: inactive; negative
Test System: AMES SALMONELLA TYPHIMURIUM, Strain/Indicator: TA1537, Metabolic Activation: NONE, Method: STANDARD PLATE
  mutagenic call: inactive; negative
Test System: AMES SALMONELLA TYPHIMURIUM, Strain/Indicator: TA1537, Metabolic Activation: S-9, Method: STANDARD PLATE
  mutagenic call: inactive; negative

## O.O=C([O-])c1ccccn1.O=C([O-])c1ccccn1.O=C([O-])c1ccccn1.[Cr+3]
End Point: In vivo micronucleus, Test System: Peripheral blood normochromatic erythrocytes, Species: Mouse, Strain/Sex: B6C3F1/Female, Route: Oral
  mutagenic call: inactive; negative
End Point: In vivo micronucleus, Test System: Peripheral blood normochromatic erythrocytes, Species: Mouse, Strain/Sex: B6C3F1/Male, Route: Oral
  mutagenic call: inactive; negative
Test System: Ames Salmonella typhimurium, Strain/Indicator: TA98, Metabolic Activation: None, Method: Preincubation
  mutagenic call: inactive; negative
Test System: Ames Salmonella typhimurium, Strain/Indicator: TA98, Metabolic Activation: Rat, Liver, S-9, Aroclor 1254 (10%), Method: Preincubation
  mutagenic call: inactive; negative
Test System: Ames Salmonella typhimurium, Strain/Indicator: TA98, Metabolic Activation: Rat, Liver, S-9, Phenobarbital and 5,6-benzoflavone, Method: Preincubation
  mutagenic call: inactive; negative
Test System: Ames Salmonella typhimurium, Strain/Indicator: TA100, Metabolic Activation: None, Method: Preincubation
  mutagenic call: inactive; negative
Test System: Ames Salmonella typhimurium, Strain/Indicator: TA100, Metabolic Activation: Rat, Liver, S-9, Aroclor 1254 (10%), Method: Preincubation
  mutagenic call: inactive; negative
Test System: Ames Salmonella typhimurium, Strain/Indicator: TA100, Metabolic Activation: Rat, Liver, S-9, Phenobarbital and 5,6-benzoflavone, Method: Preincubation
  mutagenic call: inactive; negative
Test System: Ames Salmonella typhimurium, Strain/Indicator: TA1535, Metabolic Activation: None, Method: Preincubation
  mutagenic call: inactive; negative
Test System: Ames Salmonella typhimurium, Strain/Indicator: TA1535, Metabolic Activation: Rat, Liver, S-9, Phenobarbital and 5,6-benzoflavone, Method: Preincubation
  mutagenic call: inactive; negative
Test System: Ames Salmonella typhimurium, Strain/Indicator: TA1537, Metabolic Activation: None, Method: Preincubation
  mutagenic call: inactive; negative
Test System: Ames Salmonella typhimurium, Strain/Indicator: TA1537, Metabolic Activation: Rat, Liver, S-9, Phenobarbital and 5,6-benzoflavone, Method: Preincubation
  mutagenic call: inactive; negative
Test System: E. coli, Strain/Indicator: WP2 uvrA/pKM101, Metabolic Activation: None, Method: Preincubation
  mutagenic call: inactive; negative
Test System: E. coli, Strain/Indicator: WP2uvrA/pKM101, Metabolic Activation: None, Method: Preincubation
  mutagenic call: inactive; negative
Test System: E. coli, Strain/Indicator: WP2 uvrA/pKM101, Metabolic Activation: Rat, Liver, S-9, Aroclor 1254 (10%), Method: Preincubation
  mutagenic call: inactive; negative
Test System: E. coli, Strain/Indicator: WP2uvrA/pKM101, Metabolic Activation: Rat, Liver, S-9, Phenobarbital and 5,6-benzoflavone, Method: Preincubation
  mutagenic call: inactive; negative

## Cl/C=C(\Cl)SCc1ccccc1
[1]
  mutagenic call: inactive; negative
Test System: AMES SALMONELLA TYPHIMURIUM, Strain/Indicator: TA100, Metabolic Activation: RAT, LIVER, S-9, AROCLOR 1254, Method: PREINCUBATION
  mutagenic call: active; positive

## Oc1cc2cc3ccccc3cc2c2ccccc12
Test System: CHINESE HAMSTER V-79, Strain/Indicator: V-79/8-AZAGUANINE, Metabolic Activation: NONE, Method: STANDARD PLATE
  mutagenic call: active; positive
